One data set has as its target T1, human recombinant HDAC2 (Homo sapiens, UniProt Q92769).
T1 construct: purified recombinant human full length HDAC1 (cat# 50051), HDAC2 (cat# 50052); purchased BPS Bioscience (San Diego, CA) 50052
Kind of data set: Two-step fluorogenic deacetylase assay, recombinant HDAC2. In kind it is biochemical. The source says: (§1) To assess the biochemical and cellular potency of 4b and its conversion products/metabolites, we utilized the two-step fluorogenic assay which measures the HDAC-mediated catalytic conversion of synthetic acetylated lysine substrates. In brief, on deacetylation of the substrates by HDAC activity, a protease site is unmasked which allows subsequent trypsin-mediated cleavage and release of the highly flourescent AMC molecules in a subsequent step of the assay. The substrates used were Lys_Ac_AMC (Bachem I-1875) for HDAC3 and (Ac)Arg-Gly-Lys(Ac) (Bachem I-1925) for HDAC1 and HDAC2. […] However, the relatively labile and sterically more demanding trifluoracetyl group is readily hydrolyzed by the catalytically less avid Class IIa enzymes, allowing measurement of Class IIa activity using the 2-step fluorogenic assay. […]
(§2) For evaluation of the class selectivity of the compounds, we assessed inhibition against purified recombinant human full length HDAC1 (cat# 50051), HDAC2 (cat# 50052), HDAC3-NcoR2 (cat# 50003) and HDAC8 (cat# 50008): as representative of Class I activity; catalytic domain HDAC4(αα 648–1057), HDAC5 (αα 657–1123; cat # 50005), HDAC7 (αα 518-end; cat # 50007) and HDAC9 (αα 604–1066; cat # 50009) activity: representing all Class IIa activity; and full length HDAC6 (cat#50006): representing Class IIb activity. […]

The next data set addresses T2, HDAC6 (Homo sapiens, UniProt Q9UBN7).
T2 construct: full length HDAC6 (cat#50006); purchased BPS Bioscience (San Diego, CA) 50006
Nature of the data set: Two-step fluorogenic deacetylase assay, recombinant HDAC6. In kind it is biochemical. The settings on record: up to 50 µM.
Excerpt: as §1, §2

The nature of data set [1]: Permeability in MDCK cells. In kind it is in vitro ADME. The settings on record: dog, pH 7.4. The protocol:
The MDR1-MDCKII and wild type MDCKII cell lines (obtained from SOLVO Biotechnology) were cultured in accordance with the guidelines provided by SOLVO Biotechnology. Both wild-type MDCK and MDR1-MDCK cells were seeded at a cell density of 2.3×10^5 cells/well into 24-well Transwell plates and cultured for three days to form monolayers. Test compound was loaded into the donor compartments of the Transwell plate (24-well) bearing MDR1-MDCK or wild type MDCK monolayers. Test compound was added to either the apical or basolateral chambers of the Transwell plate assembly at a concentration of 10 µM in Hanks’ Balanced Salt Solution containing 25 mM HEPES (pH 7.4). Lucifer Yellow was added to the apical buffer in all wells and its permeation monitored to assess integrity of the cell layer. […] Concentrations of compound in the samples were measured by LC-MS/MS. Concentrations of LY in the samples were measured using a fluorescence plate reader. The apparent permeability (Papp) values of test compound were determined for both the apical to basal (A>B) and basal to apical (B>A) permeation and the efflux ratio (B>A: A>B) determined in both the wild type MDCK and MDR1-MDCK cells. Apparent permeability (Papp) values were calculated from the relationship: [drawing 5] […]

In another data set the test system is FXN. Set-up: method as in PMID 16921367. The following applies: cited from earlier work.

T2 sequence (Q9UBN7 whole entry): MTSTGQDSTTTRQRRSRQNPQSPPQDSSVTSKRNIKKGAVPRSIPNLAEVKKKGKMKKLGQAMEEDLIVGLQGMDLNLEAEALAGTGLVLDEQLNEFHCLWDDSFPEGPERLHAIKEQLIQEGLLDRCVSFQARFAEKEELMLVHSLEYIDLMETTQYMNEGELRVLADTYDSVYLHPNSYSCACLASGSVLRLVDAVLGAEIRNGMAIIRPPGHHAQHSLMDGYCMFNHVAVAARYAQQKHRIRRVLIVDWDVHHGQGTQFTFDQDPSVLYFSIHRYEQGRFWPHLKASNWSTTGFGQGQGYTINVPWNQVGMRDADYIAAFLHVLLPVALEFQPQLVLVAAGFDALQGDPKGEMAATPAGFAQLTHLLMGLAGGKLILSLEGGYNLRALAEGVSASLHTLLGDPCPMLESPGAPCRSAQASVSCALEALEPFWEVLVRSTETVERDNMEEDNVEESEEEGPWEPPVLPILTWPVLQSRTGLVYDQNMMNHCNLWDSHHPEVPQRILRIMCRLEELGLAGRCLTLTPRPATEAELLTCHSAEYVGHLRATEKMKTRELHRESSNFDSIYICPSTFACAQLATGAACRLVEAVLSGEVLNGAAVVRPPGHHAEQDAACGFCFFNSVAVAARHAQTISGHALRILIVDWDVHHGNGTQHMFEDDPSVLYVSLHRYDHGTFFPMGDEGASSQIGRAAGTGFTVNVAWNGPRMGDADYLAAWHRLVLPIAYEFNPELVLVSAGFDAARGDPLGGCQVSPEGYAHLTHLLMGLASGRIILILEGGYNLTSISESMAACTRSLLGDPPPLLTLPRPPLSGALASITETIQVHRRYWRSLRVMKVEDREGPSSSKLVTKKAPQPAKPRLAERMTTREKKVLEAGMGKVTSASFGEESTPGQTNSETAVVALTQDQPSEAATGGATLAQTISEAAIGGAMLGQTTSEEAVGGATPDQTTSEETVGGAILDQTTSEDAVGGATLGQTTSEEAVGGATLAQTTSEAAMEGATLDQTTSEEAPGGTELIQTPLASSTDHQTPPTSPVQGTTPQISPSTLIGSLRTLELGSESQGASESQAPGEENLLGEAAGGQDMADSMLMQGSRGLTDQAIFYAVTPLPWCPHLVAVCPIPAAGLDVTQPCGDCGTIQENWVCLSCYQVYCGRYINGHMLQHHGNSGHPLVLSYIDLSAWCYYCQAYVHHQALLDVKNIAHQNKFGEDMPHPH
T1 sequence (Q92769 whole entry): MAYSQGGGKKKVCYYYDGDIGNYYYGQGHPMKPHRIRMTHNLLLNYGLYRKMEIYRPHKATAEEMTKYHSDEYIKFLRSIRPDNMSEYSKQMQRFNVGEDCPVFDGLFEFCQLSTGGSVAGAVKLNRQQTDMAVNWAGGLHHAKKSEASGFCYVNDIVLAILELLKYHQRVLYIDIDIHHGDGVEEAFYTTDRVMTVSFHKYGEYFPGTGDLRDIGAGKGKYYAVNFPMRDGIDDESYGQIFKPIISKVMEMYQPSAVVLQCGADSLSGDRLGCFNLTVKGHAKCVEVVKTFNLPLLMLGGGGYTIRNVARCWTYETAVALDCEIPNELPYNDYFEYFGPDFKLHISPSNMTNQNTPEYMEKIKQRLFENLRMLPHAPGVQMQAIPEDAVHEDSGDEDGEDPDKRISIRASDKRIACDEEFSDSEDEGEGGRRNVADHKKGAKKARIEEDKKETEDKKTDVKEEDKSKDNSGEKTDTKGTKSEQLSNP

On to `Nc1ccccc1NC(=O)CCCCCC(=O)Nc1ccccc1` [Compound 4b], for which the 50% inhibitory concentration (IC50) (usually the concentration that inhibits the measured activity by half) on human recombinant HDAC2 was 2.23 µM. Besides, the “activity against HDAC6” value on HDAC6 was “No activity”. In addition, the Papp A→B (in general, how fast a substance crosses the layer from the apical side) at 1 h, 10 µM in data set [1] stood at 10.8 ×10⁻⁶ cm/s. Besides, the “increase in FXN protein levels” value in the data set with FXN (at 2.5 µM) was 3.5 fold. Further, the “enhancement of FXN mRNA” value in the data set with FXN (at 5 µM) is on record as 2.5 fold.

The values above are taken from paper PMC3433414, “Oral Administration of the Pimelic Diphenylamide HDAC Inhibitor HDACi 4b Is Unsuitable for Chronic Inhibition of HDAC Activity in the CNS In Vivo” (PLoS ONE, 2012).
